Patent publication US20090298912A1, “Arginase II: A Target treatment of aging heart and heart failure” (The Johns Hopkins University, priority 2005, published 2009)
Entries after “also recorded” stand apart in the source; their conditions may differ.

How the values were obtained:
[1] = tested on: isolated rat cardiac myocytes; experiment: Contractility (sarcomere shortening) in isolated rat myocytes; type: cell-based; conditions: for Effect on the BEC-induced increase in contractility: L-NAME 10^−4 M (0.1 mM), SMTC 10 μM; for Emax, increase in myocardial contractility (sarcomere shortening) / EC50: dose response; for EC50: log value, read-out: LogEC50, increase in myocardial contractility (sarcomere shortening) (converted); for Sarcomere shortening, agent alone: agent alone (L-arginine 0.1 mM), n=3, species of myocytes not stated
Description: (§1) Measurement of Contractility in Isolated Rat and Mouse Myocytes: Both rat and mouse myocytes were isolated by enzymatic digestion as previously described (2, 3). Myocytes were transferred to a lucite chamber on the stage of an inverted microscope (Nikon TE 200), continuously superfused with Tyrodes containing 1.0 mM Ca^2+, and stimulated at 1 Hz. Sarcomere length was recorded with an IonOptix intensified charged coupled device camera (iCCD) camera. Change in average sarcomere length was determined by fast Fourier transform of the Z-line density trace to the frequency domain (IonOptix, Milton, Mass.) as previously described (2, 3).
(§2) Data Analysis and Statistics: All data are presented as mean±SEM, with N being indicated for each experimental protocol. For dose responses, data was fitted using the software program Prism 4 (Graphpad) and Emax and EC50 calculated. Statistical analysis was performed using one-way analysis of variance with post test or unpaired Student t test where appropriate.

NO production = NO production (nitrite levels) in heart and isolated cardiac myocyte lysates; type: biochemical, rat; conditions: for NO production: BEC 10 μmol/L, n=6; for Effect on myocyte NO production: isolated myocytes, exogenous L-arginine 0.1 mM alone
Description: NOS Activity and NO Production: NO production was evaluated by measuring nitrite levels (Calbiochem) following pre-incubation of heart and myocytes with BEC (10 μmol/L) in PBS (pH 7.4) as previously described (52).

isolated mouse myocytes = experiment: Contractility (sarcomere shortening) in isolated mouse myocytes (WT, NOS1 and NOS3 deficient); type: cell-based
Source text: Animals: Mice (8 to 10 weeks old) homozygous for targeted disruption of the NOS1 gene (NOS1^−/−, n=3), the NOS3 gene (NOS3^−/−, n=3), and wild-type control mice (WT, C57BL6J, n=3) were purchased from Jackson Laboratories. All rats (Wistar, 11 to 14 weeks old) were purchased from Harlan Laboratory. All protocols conformed to the current National Institutes of Health and American Physiological Society Guidelines for the Use and Care of Laboratory Animals.
as §1, §2

arginase [2] = experiment: Arginase activity in rat heart and isolated myocyte homogenates; type: biochemical; conditions: whole rat heart homogenate, dose-dependent
Description: (§3) Arginase Activity: Rat hearts and myocytes were homogenized in lysis buffer (50 mM Tris-HCl, pH 7.5, 0.1 mM EDTA and protease inhibitor) and centrifuged for 30 min at 14,000 g at 4° C. for an arginase activity assay as described previously (20).

arginase [3] = biological target: T1, arginase (Rattus norvegicus, UniProt O08701); experiment: as above; type: biochemical; conditions: isolated rat myocytes, dose-dependent
T1 construct: Arginase activity is present in both whole rat heart (n=4) and isolated rat myocytes (n=3); from tissue; host or cells: Wistar rat heart tissue and freshly isolated rat cardiac myocytes (homogenates)
T1 sequence (O08701 23-354): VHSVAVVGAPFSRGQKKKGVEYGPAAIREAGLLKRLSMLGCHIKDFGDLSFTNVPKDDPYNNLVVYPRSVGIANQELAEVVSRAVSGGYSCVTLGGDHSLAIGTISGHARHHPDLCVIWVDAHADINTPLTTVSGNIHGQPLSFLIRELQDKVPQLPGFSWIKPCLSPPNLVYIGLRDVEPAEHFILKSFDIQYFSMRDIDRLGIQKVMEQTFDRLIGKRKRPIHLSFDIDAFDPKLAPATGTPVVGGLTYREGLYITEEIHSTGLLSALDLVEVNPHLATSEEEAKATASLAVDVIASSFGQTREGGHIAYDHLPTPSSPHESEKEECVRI
Description: as §3

## CSC(N)=NCCC[C@H](N)C(=O)O [SMTC]
[1]; isolated rat myocytes
  Effect on the BEC-induced increase in contractility: abolished; also recorded: inhibited

## N=C(NO)NCC[C@H](N)C(=O)O [Nor-NOHA, N-hydroxy-nor-L-arginine]
[1]; isolated rat myocytes, Nor-NOHA dose response (FIG. 4b legend)
  Increase in contractility (sarcomere shortening): 1.9±0.45 fold increase
[1]; isolated rat myocytes
  Emax, increase in myocardial contractility (sarcomere shortening): 1.98±0.23 fold increase
  EC50: 1.58 µM

## COC(=O)[C@@H](N)CCCNC(=N)N[N+](=O)[O-] [L-NAME]
[1]
  Sarcomere shortening, agent alone: 0.76±0.06 fold change
[1]; isolated rat myocytes
  Effect on the BEC-induced increase in contractility: completely abolished; also recorded: completely inhibited

## N[C@@H](CSCCB(O)O)C(=O)O [BEC, S-(2-boronoethyl)-L-cysteine]
NO production; heart lysates
  NO production: 16.7±1 μmol/mg protein
NO production; isolated myocyte lysates
  NO production: 11.1±2.2 μmol/mg protein
Isolated mouse myocytes; myocytes from NOS1 deficient mice
  Emax, basal sarcomere shortening: 1.11±0.08
Isolated mouse myocytes; myocytes from NOS1 deficient mice, increasing doses
  Effect on contractility: no effect
Isolated mouse myocytes; myocytes from NOS3 deficient mice
  Emax, basal sarcomere shortening: 1.81±0.17
Isolated mouse myocytes; myocytes from NOS3 deficient mice, increasing doses
  Effect on sarcomere shortening: dose dependently increased
Isolated mouse myocytes; myocytes from WT mice, increasing doses
  Effect on sarcomere shortening: dose dependently increased
Isolated mouse myocytes; myocytes from wild type mice
  Emax, basal sarcomere shortening: 1.97±0.24
[1]; isolated rat myocytes, BEC 10^−5M alone (FIG. 4a)
  Contractility, fold change in sarcomere shortening: 2.1±0.14 fold change
[1]; isolated rat myocytes, BEC alone, NOS1 inhibitor experiment (FIG. 5a)
  Contractility (sarcomere shortening), fold change: 2.06±0.14
[1]; isolated rat myocytes
  Emax, increase in myocardial contractility (sarcomere shortening): 1.8±0.3 fold increase
  EC50: 1.58 µM
[1]; isolated rat myocytes, increasing doses
  Effect on sarcomere shortening: dose dependently increased
Arginase [2]
  Arginase activity in presence of inhibitor: inhibitable; also recorded: inhibited
Arginase [3]
  Arginase activity in presence of inhibitor: inhabitable; also recorded: inhibited

## N=C(N)NCCC[C@H](N)C(=O)O [L-arginine]
NO production
  Effect on myocyte NO production: did not effect
NO production; listed as L-Arginine
  Effect on myocyte NO production: no effect
[1]
  Sarcomere shortening, agent alone: 1.1±0.05 fold change
